Laboratory results taken from patent US20040219175A1, “Thermogelling emulsions for sustained release of bioactive substances” (Industrial Technology Research Institute, priority 2002, published 2004).

System: hepatitis B virus
Assay: Anti-viral effect on hepatitis B virus in SCID mice injected with patient serum, plasma HBsAg by ELISA
Format: in vivo
Procedure: The serum of the patient infected with hepatitis B virus was collected and injected into the SCID mice. Interferon-alpha, Interferon-alpha-containing emulsions and untreated groups of mice were divided to evaluate antiviral bioactivity of inteferon. Different formulations were administered at the interferon-alpha dose of 1000 units/g body weight of mice. Three days later, blood was collected and the concentrations of hepatitis B virus surface antigen (HBsAg) in plasma were determined by ELISA method.

Substance: Interferon-alpha
- anti-viral effect compared to the untreated control (p<0.05): statistically significant anti-viral effect
- relative HBsAg ratio to the untreated control (plasma, three days after 1000 units/g body weight, untreated defined as 1.0): 0.29±0.4
